Experimental findings from patent US8975234B2, “Anti-bacterial infection, inflammation, and leukemia composition and use thereof” (priority 2011, dated 2015) are described below.

The subject of experiment [1] is K-562 cells. Kind of experiment: DNA ladder test. It is filed as cell-based, human. As to conditions: 48 hours, different concentrations. How it is done: K-562 cells treated with Tellimagrandin II were collected for electrophoresis to identify any DNA fragmentation.
A total of 3 mL cell solution at the concentration of 1×10^6 K-562 cells per mL was cultured with 6 cm cell culture plates in an incubator supplied with 5% CO2 at 37° C. for 30 minutes so that cells could adapt to the environment. Tellimagrandin II solutions of different concentrations were added by order so that the final concentrations are 0, 20, 30, 40, 50 and 60 μM respectively. The solution was placed in incubator with 5% CO2 at 37° C. for 48 hours before being centrifuged at 2,500 rpm at 4° C. for 5 minutes. After removing the supernatant, it's rinsed by PBS once. Then, cell lysis buffer 100 μL (1% NP-40 dissolved in […], pH 8.0) was added and the solution was shaken at high speed for 10 seconds.
The solution was centrifuged at 3,500 rpm for 5 minutes before 90 μL supernatant was collected and mixed properly with SDS solution 10 μL. RNase A (4 mg/mL) 50 μL was added into the mixed solution then placed in water bath at 56° C. for one hour to remove RNA. Proteinase K (10 mg/mL) 30 μL was then added before another one hour in the water bath at 56° C. to remove protein. […]

Experiment [2] deals with K-562 cells. Description: Western blotting of apoptosis and cell cycle proteins. It is filed as cell-based, human. As to conditions: 40 and 50 μM, 48 hours. How it is done:
A total of 3 mL cell solution at the concentration of 1×10^6K-562 cells per mL was cultured in 6 cm cell culture dish in an incubator supplied with 5% CO2 at 37° C. for 30 minutes so that cells could adapt to the environment. Tellimagrandin II solutions of different concentrations were added by order so that the final concentrations are 0, 40 and 50 μM, respectively. The solution was placed in incubator with 5% CO2 at 37° C. for 48 hours. After incubation, it was centrifuged at 1,000 rpm at 4° C. for 5 minutes and rinsed by PBS once. RIPA buffer solution containing protease inhibitors was added to decompose the cells.
The solution was rapidly frozen with liquid nitrogen and unfrozen for three times to ensure that cells had been broken by the physical damages. The solution was centrifuged at 15,000 rpm at 4° C. for 30 minutes; the supernatant containing total cell protein was collected. Protein concentrations were determined by BCA protein assay. Finally, equal amounts of protein samples (40 μg) were boiled in 1× loading buffer for 3 minutes to decompose protein into primary structure for further protein gel electrophoresis (or stored at −80° C.).
SDS-PAGE 10% or 12% was selected by the desired protein molecular weight in the protein gel electrophoresis (150 V, 17 mA for 2 hour and 5 minutes). The protein was transferred from the gel to PVDF membrane using wet transfer procedure (100 V, 300 mA for 30 minutes). The membrane was blocked at room temperature for one hour in Tris-buffered saline-Tween (TBS-T) buffer solution containing 2% Bovine serum albumin (BSA) to eliminate non-specifically binding.
PVDF membrane was probed with primary antibody diluted with by the recommended amount according the manufacture in 2% BSA-TBS-T buffer solution at 4° C. for 16 to 18 hours. After the interaction completed, TBS-T buffer solution was used to rinse out the non-specifically bound primary antibody. TBS-T buffer solution was changed every 10 minutes for three times in about 30 minutes. Then, specific secondary antibody was added for interaction at room temperature for one hour. TBS-T buffer solution was used to rinse out the non-specifically bound secondary antibody. TBS-T buffer solution was changed every 10 minutes for six times in about 60 minutes. ECL System (Enhanced chemiluminescence system) was used and film was exposed to light and developed. Finally qualitative analysis was performed. […] Protein related to cell cycle regulation includes G2/M checkpoint regulators, Cyclin B1 and Cdc-25C.
A general note: A western blot detects proteins with antibodies after separation by electrophoresis.

As for `O=C(OC1O[C@@H]2COC(=O)c3cc(O)c(O)c(O)c3-c3c(cc(O)c(O)c3O)C(=O)O[C@H]2[C@H](OC(=O)c2cc(O)c(O)c(O)c2)[C@H]1OC(=O)c1cc(O)c(O)c(O)c1)c1cc(O)c(O)c(O)c1` (stereo partly drawn) [Tellimagrandin II], in the experiment on K-562 cells [1], the “DNA fragmentation, DNA ladder electrophoresis” value is given as “DNA fragmentation occurred”. In the experiment with K-562 cells [2], the “Caspase-8 (inactive form)” value is given as “decreases”; the “Caspase-9, Caspase-3, and Caspase-7” value was “activation”; the “Cyclin B1 and Cdc-25C (non-phosphorylated) activity” value is given as “decreased”; the PARP entry is listed as “ultimate activation”. The “protein of anti-apoptosis Bcl-2” value in the experiment on K-562 cells [2] was “decrease”.
